Assay results as given in patent US10345292B2, “Mammalian cell lines expressing functional nematode acetylcholine receptors and use thereof for high-throughput screening assays” (priority 2014, dated 2019).
Read-outs that look alike come from different tables or passages of the source.

Columns and labels:
[1] = target: T1, Hco ACR-16/hRIC3 cell line (Haemonchus contortus, UniProt A9Y2C3); experiment: Ca2+ measurement in 384-well plate format on FDSS6000 (Fluo-4AM); format: cell-based
T1 sequence (A9Y2C3 1-494): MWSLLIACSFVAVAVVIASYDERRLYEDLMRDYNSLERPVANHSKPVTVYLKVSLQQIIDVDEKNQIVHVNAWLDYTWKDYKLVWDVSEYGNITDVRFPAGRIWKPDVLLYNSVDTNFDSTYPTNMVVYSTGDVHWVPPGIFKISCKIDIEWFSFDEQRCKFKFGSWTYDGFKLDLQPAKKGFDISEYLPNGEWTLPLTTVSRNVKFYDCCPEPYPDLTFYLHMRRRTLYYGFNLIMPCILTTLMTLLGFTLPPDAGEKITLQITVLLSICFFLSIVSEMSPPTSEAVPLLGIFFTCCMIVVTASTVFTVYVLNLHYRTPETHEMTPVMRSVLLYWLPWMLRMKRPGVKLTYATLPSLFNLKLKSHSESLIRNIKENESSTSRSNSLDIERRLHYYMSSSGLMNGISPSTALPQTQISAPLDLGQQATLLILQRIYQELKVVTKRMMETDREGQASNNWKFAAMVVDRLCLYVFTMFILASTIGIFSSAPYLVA
T1 sequence (Q7Z5B4 29-369 partner): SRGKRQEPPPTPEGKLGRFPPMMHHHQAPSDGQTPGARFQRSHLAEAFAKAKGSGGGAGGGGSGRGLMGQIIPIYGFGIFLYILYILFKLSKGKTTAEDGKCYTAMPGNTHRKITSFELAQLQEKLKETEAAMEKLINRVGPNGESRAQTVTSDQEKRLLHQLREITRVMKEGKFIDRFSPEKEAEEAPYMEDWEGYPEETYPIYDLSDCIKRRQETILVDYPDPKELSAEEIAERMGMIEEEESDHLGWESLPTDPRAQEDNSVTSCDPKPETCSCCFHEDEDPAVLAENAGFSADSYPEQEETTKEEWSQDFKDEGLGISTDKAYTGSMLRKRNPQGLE

[2] = system: Dim ACR-16/Dim RIC3 stable cell line; experiment: as above; format: cell-based, Dirofilaria immitis
[3] = system: Hco ACR-16/hRIC3 stable cell line (Flp-In-293-Hco ACR-16 hRic3); format: cell-based, Haemonchus contortus; design: AUC, Mean / AUC, Median: unit not given beside the values
[4] = target: T2, Hco ACR-16/Hco RIC3 stable cell line (Haemonchus contortus, UniProt A9Y2C3); experiment: Ca2+ measurement in 384-well plate format on FDSS6000 (Fluo-4AM); format: cell-based
T2 sequence (A9Y2C3 1-494): T1 sequence (A9Y2C3 1-494)

CN1CCCC1c1cccnc1 (stereo not drawn) [Nicotine]
EC50 [1]: 200 nM | EC50 ([2]; read-out: EC50 (FIG. 10, FIG. 11), orthosteric reference agonist, concentration response curve): 350 nM | EC50 ([2]; read-out: EC50 value, Revealed by co-application of PNU-120956): 400 nM

Clc1ccc(C2CC3CCC2N3)cn1 (stereo not drawn) [Epibatidine]
EC50 [1]: 6 nM | Signal amplitude with 10 μM PNU120596 + 300 nM epibatidine application ([1]; 24 h @ 37° C.): 1503 RFU | Signal amplitude with 10 μM PNU120596 + 300 nM epibatidine application ([1]; 24 h @ 37° C. + 24 h @ 30° C.): 2160 RFU | AUC, Mean [3]: 271.25 | AUC, Median [3]: 253.67 | Ratio, Mean [3]: 2.51 | Ratio, Median [3]: 2.15 | Rmax, Mean [3]: 2.62 | Rmax, Median [3]: 2.34 | Rmin, Mean [3]: 1.02 | Rmin, Median [3]: 1.04 | EC50 [4]: 5 nM | Signal amplitude with 10 μM PNU120596 + 300 nM epibatidine application ([4]; 24 h @ 37° C.): 680 RFU | Signal amplitude with 10 μM PNU120596 + 300 nM epibatidine application ([4]; 24 h @ 37° C. + 24 h @ 30° C.): 1601 RFU | Signal amplitude with 10 μM PNU120596 + 300 nM epibatidine application [2]: 450 RFU | EC50 ([2]; read-out: EC50 (FIG. 10, FIG. 11)): 10 nM | EC50 ([2]; read-out: EC50 value): 5 nM

CC(=O)OCC[N+](C)(C)C [Acetylcholine]
EC50 [1]: 480 nM

COc1cc(OC)c(NC(=O)Nc2cc(C)on2)cc1Cl [PNU-120956]
EC50 ([1]; four-parameter logistic fit, cell line not named in legend, read-out: XC50 from concentration-response curve (FIG. 8)): 160 nM | EC50 ([4]; Revealed by co-application of EC100 orthosteric reference agonist, read-out: EC50 value): 1400 nM | EC50 ([2]; allosteric modulator response curve, read-out: EC50 (FIG. 12)): 2400 nM
